These results are taken from US8883782B2, “Spiro-tetracyclic ring compounds as beta-secretase modulators and methods of use” (Amgen Inc., priority 2010, dated 2014).

For test [1], the target named is Beta Secretase enzyme (BACE) (Homo sapiens, UniProt P56817). Briefly: In vitro enzymatic BACE FRET (fluorescence resonance energy transfer) assay. Type of test: biochemical. The note with it: average IC50, enzyme assay; read-out: BACE 1 FRET assay. Put shortly:
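Run in 0.05 M acetate pH 4.2 with 10% DMSO final and 100 uM genapol; started by adding 50 nM FRET peptide substrate (fluorophore and quencher flanking the cleavage site), incubated one hour, then stopped with Tris to neutral pH before reading fluorescence.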

In test [2] the test system is Aβ40 in conditioned medium of cells stably expressing Amyloid Precursor Protein (APP). Put plainly: In vitro BACE cell-based assay (Aβ40 in conditioned medium, sandwich ELISA). The note with it: Homo sapiens, read-out: HEK cell assay. The procedure, abridged: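 Quantification relied on pAb40/6E10 sandwich ELISA with Europium fluorescence counts, and IC50 was fitted versus concentration.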

Like-named read-outs stand apart in the source and are kept apart here.

Beta Secretase enzyme (BACE), sequence (P56817 46-501, species assumed): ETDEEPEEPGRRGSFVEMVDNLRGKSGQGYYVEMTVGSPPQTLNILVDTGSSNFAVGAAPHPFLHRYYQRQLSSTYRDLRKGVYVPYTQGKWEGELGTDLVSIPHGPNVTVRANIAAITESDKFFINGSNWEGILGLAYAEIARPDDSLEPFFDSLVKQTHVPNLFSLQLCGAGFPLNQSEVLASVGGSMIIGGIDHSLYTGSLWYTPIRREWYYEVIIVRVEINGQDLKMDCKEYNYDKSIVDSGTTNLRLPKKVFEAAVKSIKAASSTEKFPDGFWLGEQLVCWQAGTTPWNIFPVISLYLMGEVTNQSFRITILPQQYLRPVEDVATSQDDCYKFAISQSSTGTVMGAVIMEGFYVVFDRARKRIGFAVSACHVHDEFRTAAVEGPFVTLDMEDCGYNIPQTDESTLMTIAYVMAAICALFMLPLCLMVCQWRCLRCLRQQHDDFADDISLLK

Regarding `NC1=N[C@@]2(CO1)c1cc(OCc3ccncc3)ccc1Oc1ncc(C3=CCOCC3)cc12` [Example 970, (5S)-3-(3,6-dihydro-2H-pyran-4-yl)-7-(4-pyridinylmethoxy)spiro[chromeno[2,3-b]pyridine-5,4′-[1,3]oxazol]-2′-amine], the IC50 in test [1] came to 112 nM; in test [2] (HEK293, average IC50, HEK cells) it was 455 nM.

On to `NC1=N[C@@]2(CO1)c1cc(OCc3cccnc3)ccc1Oc1ncc(C3=CCOCC3)cc12` [Example 971, (5S)-3-(3,6-dihydro-2H-pyran-4-yl)-7-(3-pyridinylmethoxy)spiro[chromeno[2,3-b]pyridine-5,4′-[1,3]oxazol]-2′-amine], for which the IC50 in test [1] worked out at 33.6 nM; in test [2] (HEK293, average IC50) it was 154 nM.

Turning to `NC1=N[C@@]2(CO1)c1cc(OCc3ccccn3)ccc1Oc1ncc(C3=CCOCC3)cc12` [Example 972, (5S)-3-(3,6-dihydro-2H-pyran-4-yl)-7-(2-pyridinylmethoxy)spiro[chromeno[2,3-b]pyridine-5,4′-[1,3]oxazol]-2′-amine], the IC50 in test [1] turned out to be 89.6 nM; in test [2] (HEK293, average IC50), 629 nM.

Consider `CC1(C#Cc2cnc3c(c2)[C@]2(COC(N)=N2)c2cc(OCc4ccccc4)ccc2O3)COC1` [Example 973, (5S)-7-(benzyloxy)-3-((3-methyl-3-oxetanyl)ethynyl)spiro[chromeno[2,3-b]pyridine-5,4′-[1,3]oxazol]-2′-amine], for which the IC50 in test [1] came to 187 nM; in test [2] (HEK293, average IC50), 1370 nM.

For the compound `NC1=N[C@@]2(CO1)c1cc(OCc3cccnc3)ccc1Oc1ncc(-c3ccnc(F)c3)cc12` [Example 974, (5S)-3-(2-fluoro-4-pyridinyl)-7-(3-pyridinylmethoxy)spiro[chromeno[2,3-b]pyridine-5,4′-[1,3]oxazol]-2′-amine], the IC50 worked out at 110 nM in test [1] and 2720 nM in test [2] (HEK293, average IC50).

For the compound `NC1=N[C@@]2(CO1)c1cc(OCc3cccnc3)ccc1Oc1ncc(-c3cccnc3)cc12` [Example 975, (5S)-3-(3-pyridinyl)-7-(3-pyridinylmethoxy)spiro[chromeno[2,3-b]pyridine-5,4′-[1,3]oxazol]-2′-amine], the IC50 in test [1] was determined as 116 nM; in test [2] (HEK293, average IC50), 1080 nM.

As for `NC1=N[C@@]2(CO1)c1cc(OCc3cccnc3)ccc1Oc1ncc(Br)cc12` [Example 976, (5S)-3-bromo-7-(3-pyridinylmethoxy)spiro[chromeno[2,3-b]pyridine-5,4′-[1,3]oxazol]-2′-amine], the IC50 in test [1] was 3810 nM; in test [2] (HEK293, average IC50), no less than 10000 nM.

As to `Cc1ccc(-c2cnc3c(c2)[C@]2(COC(N)=N2)c2cc(OCc4cccnc4)ccc2O3)cn1` [Example 977, (5S)-3-(6-methyl-3-pyridinyl)-7-(3-pyridinylmethoxy)spiro[chromeno[2,3-b]pyridine-5,4′-[1,3]oxazol]-2′-amine], the IC50 was 51.9 nM in test [1] and 430 nM in test [2] (HEK293, average IC50).

In the case of `NC1=N[C@@]2(CO1)c1cc(OCc3ccccc3Br)ccc1Oc1ncc(-c3cccnc3)cc12` [Example 978, (5S)-7-((2-bromobenzyl)oxy)-3-(3-pyridinyl)spiro[chromeno[2,3-b]pyridine-5,4′-[1,3]oxazol]-2′-amine], the IC50 in test [1] came out at 50.7 nM; in test [2] (HEK293, average IC50) it was 334 nM.

In the case of `NC1=N[C@@]2(CO1)c1cc(OCc3cccc(Br)c3)ccc1Oc1ncc(-c3cccnc3)cc12` [Example 979, (5S)-7-((3-bromobenzyl)oxy)-3-(3-pyridinyl)spiro[chromeno[2,3-b]pyridine-5,4′-[1,3]oxazol]-2′-amine], the IC50 in test [1] amounted to 0.6 nM; in test [2] (HEK293, average IC50), 23 nM.

`NC1=N[C@@]2(CO1)c1cc(OCc3ccc(Br)cc3)ccc1Oc1ncc(-c3cccnc3)cc12` [Example 980, (5S)-7-((4-bromobenzyl)oxy)-3-(3-pyridinyl)spiro[chromeno[2,3-b]pyridine-5,4′-[1,3]oxazol]-2′-amine]: the IC50 in test [1] was 45.6 nM; in test [2] (HEK293, average IC50) it was 336 nM.

`NC1=N[C@@]2(CO1)c1cc(OCCCc3ccccc3)ccc1Oc1ncc(-c3cccnc3)cc12` [Example 981, (5S)-7-(3-phenylpropoxy)-3-(3-pyridinyl)spiro[chromeno[2,3-b]pyridine-5,4′-[1,3]oxazol]-2′-amine]: the IC50 in test [1] amounted to 22.2 nM; in test [2] (HEK293, average IC50) it was 262 nM.

Regarding `NC1=N[C@@]2(CO1)c1cc(OCc3cccc(F)c3)ccc1Oc1ncc(-c3cccnc3)cc12` [Example 982, (5S)-7-((3-fluorobenzyl)oxy)-3-(3-pyridinyl)spiro[chromeno[2,3-b]pyridine-5,4′-[1,3]oxazol]-2′-amine], the IC50 was determined as 66.8 nM in test [1] and 644 nM in test [2] (HEK293, average IC50).

Turning to `COc1cccc(COc2ccc3c(c2)[C@@]2(COC(N)=N2)c2cc(-c4cccnc4)cnc2O3)c1` [Example 983, (5S)-7-((3-methoxybenzyl)oxy)-3-(3-pyridinyl)spiro[chromeno[2,3-b]pyridine-5,4′-[1,3]oxazol]-2′-amine], the IC50 is 24.6 nM in test [1] and 314 nM in test [2] (HEK293, average IC50).

Turning to `N#Cc1cccc(COc2ccc3c(c2)[C@@]2(COC(N)=N2)c2cc(-c4cccnc4)cnc2O3)c1` [Example 984, 3-((((5S)-2′-amino-3-(3-pyridinyl)spiro[chromeno[2,3-b]pyridine-5,4′-[1,3]oxazol]-7-yl)oxy)methyl)benzonitrile], the IC50 in test [1] was found to be 30.8 nM; in test [2] (HEK293, average IC50), 125 nM.

`NC1=N[C@@]2(CO1)c1cc(OCc3cccc(C(F)(F)F)c3)ccc1Oc1ncc(-c3cccnc3)cc12` [Example 985, (5S)-3-(3-pyridinyl)-7-((3-(trifluoromethyl)benzyl)oxy)spiro[chromeno[2,3-b]pyridine-5,4′-[1,3]oxazol]-2′-amine]: the IC50 in test [1] stood at 68.3 nM; in test [2] (HEK293, average IC50), 288 nM.

In the case of `CC1(C#Cc2cc3c(cc2OC(F)(F)F)Oc2ccc(-c4cccnc4F)cc2[C@@]32COC(N)=N2)COC1` [Example 986, (4S)-7′-(2-fluoro-3-pyridinyl)-2′-((3-methyl-3-oxetanyl)ethynyl)-3′-(trifluoromethoxy)spiro[1,3-oxazole-4,9′-xanthen]-2-amine], the IC50 stood at 193 nM in test [1] and 2820 nM in test [2] (HEK293, average IC50).

Regarding `CC1(C#Cc2cc3c(cc2OC(F)(F)F)Oc2ccc(-c4cccnc4F)cc2[C@]32COC(N)=N2)COC1` [Example 987, (4R)-7′-(2-fluoro-3-pyridinyl)-2′-((3-methyl-3-oxetanyl)ethynyl)-3′-(trifluoromethoxy)spiro[1,3-oxazole-4,9′-xanthen]-2-amine], the IC50 was 4630 nM in test [1] and no less than 10000 nM in test [2] (HEK293, average IC50).

On to `NC1=N[C@]2(CO1)c1cc(-c3cccnc3F)ccc1Oc1cc(OC(F)(F)F)c(Br)cc12` [Example 988, (4R)-2′-bromo-7′-(2-fluoro-3-pyridinyl)-3′-(trifluoromethoxy)spiro[1,3-oxazole-4,9′-xanthen]-2-amine], for which the IC50 in test [1] was 40000 nM; in test [2] (HEK293, average IC50) it was no less than 10000 nM.

`NC1=N[C@@]2(CO1)c1cc(-c3cccnc3F)ccc1Oc1cc(OC(F)(F)F)c(Br)cc12` [Example 989, (4S)-2′-bromo-7′-(2-fluoro-3-pyridinyl)-3′-(trifluoromethoxy)spiro[1,3-oxazole-4,9′-xanthen]-2-amine]: the IC50 was 2380 nM in test [1] and no less than 10000 nM in test [2] (HEK293, average IC50).

For `NC1=N[C@]2(CO1)c1cc(-c3cccnc3F)ccc1Oc1cc(OC(F)(F)F)c(-c3ccnc(F)c3)cc12` [Example 990, (4R)-7′-(2-fluoro-3-pyridinyl)-2′-(2-fluoro-4-pyridinyl)-3′-(trifluoromethoxy)spiro[1,3-oxazole-4,9′-xanthen]-2-amine], the IC50 stood at 8220 nM in test [1] and 7220 nM in test [2] (HEK293, average IC50).
